Source: the NIST ThermoML archive (doi:10.1021/acs.jced.9b00561)
Numbers after ± are expanded uncertainties. One block for each compound: values may come before it.

Experiment: refractive index (Na D-line) (dimensionless); wn = mass fraction of the nth substance listed
Conditions: 323.15 K, 101.3 kPa, Liquid, Standard Abbe refractometry

refractive index (w1 = 0.2683): 1.3765 ± 0.0019
Compound: [Cl-].[Na+] [sodium chloride] + O

refractive index (w1 = 0.4841): 1.439 ± 0.0018
Compound: [Cl-].[Li+] [lithium chloride] + O

Compound: O=BOB([O-])OB([O-])OB=O.[Na+].[Na+] [sodium tetraborate] + O
refractive index (w1 = 0.0953): 1.3477 ± 0.0004
